Assays:
Settings in all cases: Compound concentration 10 µM
[1] = target: Beta-2 adrenergic receptor (Homo sapiens) (UniProt P07550)
[2] = target: 5-hydroxytryptamine receptor 1B (Homo sapiens) (UniProt P28222)
[3] = target: Histamine H3 receptor (Homo sapiens) (UniProt Q9Y5N1)
[4] = target: Translocator protein (Homo sapiens) (UniProt P30536)
[5] = target: Mu-type opioid receptor (Homo sapiens) (UniProt P35372)
[6] = target: Histamine H4 receptor (Homo sapiens) (UniProt Q9H3N8)
[7] = target: Sigma non-opioid intracellular receptor 1 (Homo sapiens) (UniProt Q99720)
Sigma non-opioid intracellular receptor 1 (Homo sapiens), sequence (Q99720 whole entry): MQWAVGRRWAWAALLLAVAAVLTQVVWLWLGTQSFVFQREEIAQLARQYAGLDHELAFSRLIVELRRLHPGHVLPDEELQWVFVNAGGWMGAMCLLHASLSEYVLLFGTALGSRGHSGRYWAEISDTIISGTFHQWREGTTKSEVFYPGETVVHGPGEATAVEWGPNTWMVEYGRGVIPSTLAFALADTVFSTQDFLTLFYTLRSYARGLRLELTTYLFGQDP

[8] = target: 5-hydroxytryptamine receptor 1D (Homo sapiens) (UniProt P28221)
[9] = target: 5-hydroxytryptamine receptor 7 (Homo sapiens) (UniProt P34969)
[10] = target: T1, Muscarinic acetylcholine receptor M1 (Homo sapiens) (UniProt P11229)
T1 sequence (whole entry): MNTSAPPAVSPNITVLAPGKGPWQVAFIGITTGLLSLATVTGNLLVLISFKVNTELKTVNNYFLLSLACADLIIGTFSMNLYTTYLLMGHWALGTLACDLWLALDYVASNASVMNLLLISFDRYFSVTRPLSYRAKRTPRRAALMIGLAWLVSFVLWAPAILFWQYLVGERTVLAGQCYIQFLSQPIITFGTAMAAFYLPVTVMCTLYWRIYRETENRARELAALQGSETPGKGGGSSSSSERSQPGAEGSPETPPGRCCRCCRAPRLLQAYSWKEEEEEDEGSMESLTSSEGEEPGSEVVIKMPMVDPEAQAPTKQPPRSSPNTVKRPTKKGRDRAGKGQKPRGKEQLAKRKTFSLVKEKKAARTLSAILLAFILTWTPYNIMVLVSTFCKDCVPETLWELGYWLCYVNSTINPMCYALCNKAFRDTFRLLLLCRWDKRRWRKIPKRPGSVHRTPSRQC

[11] = target: T2, Alpha-2C adrenergic receptor (Homo sapiens) (UniProt P18825)
T2 sequence (whole entry): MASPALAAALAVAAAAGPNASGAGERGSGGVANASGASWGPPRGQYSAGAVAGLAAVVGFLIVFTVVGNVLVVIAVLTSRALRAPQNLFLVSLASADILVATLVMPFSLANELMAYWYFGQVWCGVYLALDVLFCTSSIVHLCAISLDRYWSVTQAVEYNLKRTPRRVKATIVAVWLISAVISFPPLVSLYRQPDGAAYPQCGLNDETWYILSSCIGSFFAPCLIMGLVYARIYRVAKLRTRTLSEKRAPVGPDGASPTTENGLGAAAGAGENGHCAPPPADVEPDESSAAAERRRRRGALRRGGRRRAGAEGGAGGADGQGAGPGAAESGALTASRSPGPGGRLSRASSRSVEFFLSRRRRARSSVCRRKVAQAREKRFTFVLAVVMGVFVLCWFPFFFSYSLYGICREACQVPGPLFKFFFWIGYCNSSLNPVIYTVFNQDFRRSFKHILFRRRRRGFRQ

[12] = target: Kappa-type opioid receptor (Homo sapiens) (UniProt P41145)
Kappa-type opioid receptor (Homo sapiens), sequence (P41145 whole entry): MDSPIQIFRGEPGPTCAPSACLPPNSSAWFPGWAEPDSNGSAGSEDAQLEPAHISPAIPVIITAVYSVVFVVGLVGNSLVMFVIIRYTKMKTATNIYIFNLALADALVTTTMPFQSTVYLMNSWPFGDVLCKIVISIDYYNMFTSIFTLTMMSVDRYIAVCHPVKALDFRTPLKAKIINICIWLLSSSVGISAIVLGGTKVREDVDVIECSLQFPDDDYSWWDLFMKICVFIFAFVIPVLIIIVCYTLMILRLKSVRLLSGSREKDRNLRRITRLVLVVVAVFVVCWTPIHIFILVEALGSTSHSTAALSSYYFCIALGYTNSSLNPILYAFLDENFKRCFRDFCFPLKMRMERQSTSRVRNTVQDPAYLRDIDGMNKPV

[13] = target: Sigma intracellular receptor 2 (Homo sapiens) (UniProt Q5BJF2)
Sigma intracellular receptor 2 (Homo sapiens), sequence (Q5BJF2 whole entry): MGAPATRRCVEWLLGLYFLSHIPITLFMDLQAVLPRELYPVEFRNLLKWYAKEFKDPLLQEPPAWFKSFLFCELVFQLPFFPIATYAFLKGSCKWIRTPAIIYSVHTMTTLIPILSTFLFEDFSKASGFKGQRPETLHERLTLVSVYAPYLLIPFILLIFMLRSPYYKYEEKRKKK

[14] = target: Sodium-dependent dopamine transporter (Homo sapiens) (UniProt Q01959)
Sodium-dependent dopamine transporter (Homo sapiens), sequence (Q01959 whole entry): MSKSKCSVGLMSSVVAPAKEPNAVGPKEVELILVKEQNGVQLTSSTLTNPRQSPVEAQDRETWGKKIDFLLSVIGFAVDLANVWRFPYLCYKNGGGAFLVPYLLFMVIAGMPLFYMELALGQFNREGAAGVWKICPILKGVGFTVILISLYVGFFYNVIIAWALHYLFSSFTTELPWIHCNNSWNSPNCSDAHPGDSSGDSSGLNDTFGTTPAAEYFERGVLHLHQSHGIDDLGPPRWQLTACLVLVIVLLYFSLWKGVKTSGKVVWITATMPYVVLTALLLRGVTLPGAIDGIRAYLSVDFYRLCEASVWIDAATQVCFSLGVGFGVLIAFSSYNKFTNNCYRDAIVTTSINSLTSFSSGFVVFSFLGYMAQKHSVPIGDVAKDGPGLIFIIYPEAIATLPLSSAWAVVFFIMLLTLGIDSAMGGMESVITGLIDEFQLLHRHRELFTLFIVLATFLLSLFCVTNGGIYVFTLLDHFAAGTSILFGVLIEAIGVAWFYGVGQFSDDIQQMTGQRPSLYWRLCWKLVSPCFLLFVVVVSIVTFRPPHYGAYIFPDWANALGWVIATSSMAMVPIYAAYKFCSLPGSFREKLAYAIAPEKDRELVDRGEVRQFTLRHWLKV

[15] = target: T3, Alpha-2B adrenergic receptor (Homo sapiens) (UniProt P18089)
T3 sequence (whole entry): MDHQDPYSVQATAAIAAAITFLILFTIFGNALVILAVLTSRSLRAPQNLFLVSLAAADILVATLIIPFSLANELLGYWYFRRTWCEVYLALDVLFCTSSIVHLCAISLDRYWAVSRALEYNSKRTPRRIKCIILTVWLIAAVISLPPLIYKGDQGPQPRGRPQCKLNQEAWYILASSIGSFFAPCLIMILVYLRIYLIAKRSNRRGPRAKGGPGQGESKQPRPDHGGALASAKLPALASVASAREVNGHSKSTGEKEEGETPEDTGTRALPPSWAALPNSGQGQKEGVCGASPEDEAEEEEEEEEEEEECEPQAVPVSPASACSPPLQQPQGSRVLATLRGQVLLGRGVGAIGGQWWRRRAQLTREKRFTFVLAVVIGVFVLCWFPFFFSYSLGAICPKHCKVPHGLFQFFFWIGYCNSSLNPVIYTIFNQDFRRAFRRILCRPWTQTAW

[16] = target: T4, D(4) dopamine receptor (Homo sapiens) (UniProt P21917)
T4 sequence (whole entry): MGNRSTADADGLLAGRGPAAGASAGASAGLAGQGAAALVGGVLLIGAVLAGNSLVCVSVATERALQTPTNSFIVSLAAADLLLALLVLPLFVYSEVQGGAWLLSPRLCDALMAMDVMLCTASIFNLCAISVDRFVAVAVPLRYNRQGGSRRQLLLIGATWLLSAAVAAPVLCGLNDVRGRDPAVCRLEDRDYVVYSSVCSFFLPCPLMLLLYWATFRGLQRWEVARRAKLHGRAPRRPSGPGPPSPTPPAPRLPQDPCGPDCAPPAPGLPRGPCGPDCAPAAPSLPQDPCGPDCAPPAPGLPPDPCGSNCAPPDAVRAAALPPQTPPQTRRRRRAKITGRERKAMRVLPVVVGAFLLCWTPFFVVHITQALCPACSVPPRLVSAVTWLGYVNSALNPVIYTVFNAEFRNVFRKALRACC

[17] = target: Histamine H1 receptor (Homo sapiens) (UniProt P35367)
Histamine H1 receptor (Homo sapiens), sequence (P35367 whole entry): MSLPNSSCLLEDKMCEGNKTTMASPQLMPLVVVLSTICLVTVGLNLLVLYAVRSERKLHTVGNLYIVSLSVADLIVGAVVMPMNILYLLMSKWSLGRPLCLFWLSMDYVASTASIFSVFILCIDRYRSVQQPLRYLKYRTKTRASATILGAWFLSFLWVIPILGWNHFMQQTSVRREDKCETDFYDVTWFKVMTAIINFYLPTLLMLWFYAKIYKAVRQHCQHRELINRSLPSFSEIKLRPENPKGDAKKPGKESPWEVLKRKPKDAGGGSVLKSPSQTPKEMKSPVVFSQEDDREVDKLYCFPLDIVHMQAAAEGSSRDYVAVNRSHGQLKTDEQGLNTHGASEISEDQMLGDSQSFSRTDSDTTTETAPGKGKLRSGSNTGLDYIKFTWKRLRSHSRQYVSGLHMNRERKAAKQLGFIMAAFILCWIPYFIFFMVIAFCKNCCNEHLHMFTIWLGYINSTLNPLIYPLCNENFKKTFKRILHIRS

[18] = target: T5, Alpha-2A adrenergic receptor (Homo sapiens) (UniProt P08913)
T5 sequence (whole entry): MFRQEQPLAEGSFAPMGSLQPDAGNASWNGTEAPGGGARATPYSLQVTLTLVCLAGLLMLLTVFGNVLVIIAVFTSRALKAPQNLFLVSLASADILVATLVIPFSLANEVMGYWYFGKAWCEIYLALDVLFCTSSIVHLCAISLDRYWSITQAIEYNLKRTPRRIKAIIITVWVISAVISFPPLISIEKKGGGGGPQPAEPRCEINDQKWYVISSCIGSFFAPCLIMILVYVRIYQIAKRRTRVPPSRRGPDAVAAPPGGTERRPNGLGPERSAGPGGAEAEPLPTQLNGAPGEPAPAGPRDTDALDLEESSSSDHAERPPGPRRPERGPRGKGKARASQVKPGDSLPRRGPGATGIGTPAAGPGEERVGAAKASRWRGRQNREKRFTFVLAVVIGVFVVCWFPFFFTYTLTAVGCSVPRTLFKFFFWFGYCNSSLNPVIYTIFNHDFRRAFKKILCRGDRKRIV

[19] = target: 5-hydroxytryptamine receptor 2B (Homo sapiens) (UniProt P41595)
5-hydroxytryptamine receptor 2B (Homo sapiens), sequence (P41595 whole entry): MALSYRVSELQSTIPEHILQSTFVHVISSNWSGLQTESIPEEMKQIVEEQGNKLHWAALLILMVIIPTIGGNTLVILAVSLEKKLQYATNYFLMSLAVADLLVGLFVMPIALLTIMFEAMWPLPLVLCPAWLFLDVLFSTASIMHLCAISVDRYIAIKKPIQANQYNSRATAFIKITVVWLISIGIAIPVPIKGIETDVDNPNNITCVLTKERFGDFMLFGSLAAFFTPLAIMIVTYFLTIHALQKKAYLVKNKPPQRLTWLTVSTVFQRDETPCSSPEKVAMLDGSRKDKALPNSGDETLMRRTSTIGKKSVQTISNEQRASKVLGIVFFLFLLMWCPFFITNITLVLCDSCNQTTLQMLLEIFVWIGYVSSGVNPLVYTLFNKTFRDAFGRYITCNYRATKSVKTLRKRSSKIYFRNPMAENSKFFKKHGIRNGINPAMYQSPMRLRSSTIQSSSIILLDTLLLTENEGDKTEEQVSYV

[20] = target: 5-hydroxytryptamine receptor 1E (Homo sapiens) (UniProt P28566)
5-hydroxytryptamine receptor 1E (Homo sapiens), sequence (P28566 whole entry): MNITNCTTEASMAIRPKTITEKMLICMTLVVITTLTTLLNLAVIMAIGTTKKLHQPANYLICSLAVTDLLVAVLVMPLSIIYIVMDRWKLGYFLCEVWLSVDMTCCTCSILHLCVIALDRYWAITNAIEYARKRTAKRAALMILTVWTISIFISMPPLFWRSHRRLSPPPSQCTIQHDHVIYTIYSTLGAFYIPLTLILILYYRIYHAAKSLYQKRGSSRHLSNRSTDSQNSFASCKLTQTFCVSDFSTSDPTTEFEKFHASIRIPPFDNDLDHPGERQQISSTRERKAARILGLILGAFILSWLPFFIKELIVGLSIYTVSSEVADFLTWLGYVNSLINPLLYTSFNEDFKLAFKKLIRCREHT

[21] = target: D(2) dopamine receptor (Homo sapiens) (UniProt P14416)
D(2) dopamine receptor (Homo sapiens), sequence (P14416 whole entry): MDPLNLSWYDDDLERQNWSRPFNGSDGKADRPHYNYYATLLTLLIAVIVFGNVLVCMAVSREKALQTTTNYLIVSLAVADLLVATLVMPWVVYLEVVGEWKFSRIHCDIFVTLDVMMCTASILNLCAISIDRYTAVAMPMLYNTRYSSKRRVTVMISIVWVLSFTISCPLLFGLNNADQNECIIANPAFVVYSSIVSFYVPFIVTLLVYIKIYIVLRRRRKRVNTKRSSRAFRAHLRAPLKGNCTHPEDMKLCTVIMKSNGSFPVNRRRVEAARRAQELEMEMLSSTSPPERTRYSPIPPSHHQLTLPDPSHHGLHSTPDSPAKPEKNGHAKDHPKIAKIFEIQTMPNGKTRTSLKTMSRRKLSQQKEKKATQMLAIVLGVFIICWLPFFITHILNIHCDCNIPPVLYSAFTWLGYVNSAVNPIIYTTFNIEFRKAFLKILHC

[22] = target: T6, 5-hydroxytryptamine receptor 3A (Homo sapiens) (UniProt P46098)
T6 sequence (whole entry): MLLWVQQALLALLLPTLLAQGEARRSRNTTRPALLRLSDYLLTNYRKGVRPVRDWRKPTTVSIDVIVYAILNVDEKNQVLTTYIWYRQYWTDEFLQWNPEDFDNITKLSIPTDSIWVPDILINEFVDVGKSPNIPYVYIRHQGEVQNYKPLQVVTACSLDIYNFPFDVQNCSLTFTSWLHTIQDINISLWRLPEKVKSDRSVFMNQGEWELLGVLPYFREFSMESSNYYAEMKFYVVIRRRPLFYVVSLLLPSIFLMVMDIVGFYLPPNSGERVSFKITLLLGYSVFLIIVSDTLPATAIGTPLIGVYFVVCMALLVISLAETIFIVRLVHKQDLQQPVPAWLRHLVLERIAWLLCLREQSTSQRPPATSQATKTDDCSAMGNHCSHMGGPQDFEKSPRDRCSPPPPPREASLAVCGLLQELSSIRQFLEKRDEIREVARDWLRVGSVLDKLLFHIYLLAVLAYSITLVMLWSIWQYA

[23] = target: Beta-3 adrenergic receptor (Homo sapiens) (UniProt P13945)
[24] = target: Sodium-dependent serotonin transporter (Homo sapiens) (UniProt P31645)
[25] = target: T7, 5-hydroxytryptamine receptor 1A (Homo sapiens) (UniProt P08908)
T7 sequence (whole entry): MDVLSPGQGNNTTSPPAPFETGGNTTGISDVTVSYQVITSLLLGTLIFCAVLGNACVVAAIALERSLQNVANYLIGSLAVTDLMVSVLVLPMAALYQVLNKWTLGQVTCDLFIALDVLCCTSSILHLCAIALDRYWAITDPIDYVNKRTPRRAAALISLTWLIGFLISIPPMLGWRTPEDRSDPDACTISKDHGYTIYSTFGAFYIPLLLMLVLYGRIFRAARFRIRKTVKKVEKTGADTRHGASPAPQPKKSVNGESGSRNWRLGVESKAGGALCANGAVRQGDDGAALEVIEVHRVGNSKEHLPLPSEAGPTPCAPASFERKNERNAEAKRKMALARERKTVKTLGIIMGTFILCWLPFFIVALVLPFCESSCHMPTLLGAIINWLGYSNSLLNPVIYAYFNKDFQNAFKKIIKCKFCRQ

[26] = target: Histamine H2 receptor (Homo sapiens) (UniProt P25021)
[27] = target: D(1A) dopamine receptor (Homo sapiens) (UniProt P21728)
[28] = target: 5-hydroxytryptamine receptor 2A (Homo sapiens) (UniProt P28223)
[29] = target: T8, Muscarinic acetylcholine receptor M4 (Homo sapiens) (UniProt P08173)
T8 sequence (whole entry): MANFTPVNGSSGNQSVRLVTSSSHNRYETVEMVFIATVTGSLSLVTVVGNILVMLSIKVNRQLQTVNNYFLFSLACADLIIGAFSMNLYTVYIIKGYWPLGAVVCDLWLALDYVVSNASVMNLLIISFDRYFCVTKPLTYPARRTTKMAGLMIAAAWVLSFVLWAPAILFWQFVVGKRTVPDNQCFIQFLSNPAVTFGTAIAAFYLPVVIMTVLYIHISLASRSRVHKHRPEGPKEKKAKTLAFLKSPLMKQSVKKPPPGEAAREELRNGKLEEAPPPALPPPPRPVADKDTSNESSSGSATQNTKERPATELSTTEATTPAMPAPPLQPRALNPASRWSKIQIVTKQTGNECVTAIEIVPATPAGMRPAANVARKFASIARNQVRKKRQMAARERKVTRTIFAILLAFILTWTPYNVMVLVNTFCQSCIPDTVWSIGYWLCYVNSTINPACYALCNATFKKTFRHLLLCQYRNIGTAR

[30] = target: D(3) dopamine receptor (Homo sapiens) (UniProt P35462)

Histamine H3 receptor (Homo sapiens), sequence (Q9Y5N1 whole entry): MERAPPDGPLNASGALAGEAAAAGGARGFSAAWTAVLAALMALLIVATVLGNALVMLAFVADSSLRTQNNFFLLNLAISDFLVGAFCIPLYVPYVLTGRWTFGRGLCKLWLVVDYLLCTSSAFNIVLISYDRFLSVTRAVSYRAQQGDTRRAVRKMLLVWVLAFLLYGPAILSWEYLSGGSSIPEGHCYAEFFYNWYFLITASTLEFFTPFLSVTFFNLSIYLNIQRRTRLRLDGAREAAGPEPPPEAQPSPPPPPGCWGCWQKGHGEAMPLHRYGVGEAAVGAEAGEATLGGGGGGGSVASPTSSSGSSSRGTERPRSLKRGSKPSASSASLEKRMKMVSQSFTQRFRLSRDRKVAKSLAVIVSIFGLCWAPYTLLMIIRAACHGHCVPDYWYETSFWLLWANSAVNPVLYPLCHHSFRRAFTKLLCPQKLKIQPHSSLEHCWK
Translocator protein (Homo sapiens), sequence (P30536 whole entry): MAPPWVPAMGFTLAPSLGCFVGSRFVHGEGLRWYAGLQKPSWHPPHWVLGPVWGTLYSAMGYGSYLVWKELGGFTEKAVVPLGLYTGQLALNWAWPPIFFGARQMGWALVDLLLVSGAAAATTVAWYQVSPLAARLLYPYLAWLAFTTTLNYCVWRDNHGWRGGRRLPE
Mu-type opioid receptor (Homo sapiens), sequence (P35372 whole entry): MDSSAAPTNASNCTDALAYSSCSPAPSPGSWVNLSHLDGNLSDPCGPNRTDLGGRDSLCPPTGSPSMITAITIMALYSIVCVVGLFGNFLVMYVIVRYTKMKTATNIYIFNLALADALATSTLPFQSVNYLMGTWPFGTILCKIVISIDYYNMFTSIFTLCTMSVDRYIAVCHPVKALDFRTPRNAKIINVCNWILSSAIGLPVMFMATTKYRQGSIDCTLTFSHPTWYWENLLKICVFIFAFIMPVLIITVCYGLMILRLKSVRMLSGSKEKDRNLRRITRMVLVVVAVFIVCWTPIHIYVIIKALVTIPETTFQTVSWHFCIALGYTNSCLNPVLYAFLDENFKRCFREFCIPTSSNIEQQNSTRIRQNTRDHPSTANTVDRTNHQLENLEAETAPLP
Histamine H4 receptor (Homo sapiens), sequence (Q9H3N8 whole entry): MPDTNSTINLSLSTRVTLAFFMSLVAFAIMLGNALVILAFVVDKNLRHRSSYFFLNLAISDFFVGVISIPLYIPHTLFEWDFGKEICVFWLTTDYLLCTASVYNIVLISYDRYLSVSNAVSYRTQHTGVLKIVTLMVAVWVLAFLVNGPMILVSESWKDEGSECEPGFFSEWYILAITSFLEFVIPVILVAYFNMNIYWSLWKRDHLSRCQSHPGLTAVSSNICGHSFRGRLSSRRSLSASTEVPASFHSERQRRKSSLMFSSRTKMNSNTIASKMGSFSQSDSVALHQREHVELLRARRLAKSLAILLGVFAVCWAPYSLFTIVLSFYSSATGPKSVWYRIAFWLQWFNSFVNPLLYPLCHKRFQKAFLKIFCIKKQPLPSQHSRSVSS

Compound: O=C(O)c1n[nH]c2c1C[C@H]1C[C@@H]21
- inhibition [1]: 3.75%
- inhibition [2]: 13%
- inhibition [3]: -7.4%
- inhibition [4]: 4.46%
- inhibition [5]: -4.24%
- inhibition [6]: 10%
- inhibition [7]: 14.3%
- inhibition [8]: 17.2%
- inhibition [9]: -5.09%
- inhibition [10]: -7.24%
- inhibition [11]: 1.98%
- inhibition [12]: -6.22%
- inhibition [13]: 11.9%
- inhibition [14]: 1.37%
- inhibition [15]: 3.24%
- inhibition [16]: -4.86%
- inhibition [17]: -7.37%
- inhibition [18]: 8.74%
- inhibition [19]: 15.1%
- inhibition [20]: 5.8%
- inhibition [21]: -9.71%

Compound: Cc1c(C(=O)NC2CCCCC2)sc2nc3ccc(N)cc3n12
- inhibition [1]: 5.51%
- inhibition [22]: -6.74%
- inhibition [2]: 27.8%
- inhibition [3]: 4.62%
- inhibition [4]: -2.67%
- inhibition [23]: -9.6%
- inhibition [5]: 8.54%
- inhibition [24]: 7.26%
- inhibition [6]: 1.51%
- inhibition [7]: 62.8%
- inhibition [25]: 33.1%
- inhibition [26]: 21.4%
- inhibition [9]: 6.55%
- inhibition [27]: 7.6%
- inhibition [12]: 17.5%
- inhibition [13]: 10.3%
- inhibition [14]: 17.7%
- inhibition [16]: 38.1%
- inhibition [17]: 11.7%
- inhibition [18]: -6.44%
- inhibition [28]: 10.5%
- inhibition [19]: 53.3%
- inhibition [29]: -5.41%
- inhibition [20]: 5.97%
- inhibition [21]: -1.44%
- inhibition [30]: 36.7%
